The source of these data is patent US20100291591A1, “NOVEL PLATING MEDIA” (priority 2007, published 2010).

SMILES strings stand for the structures.

The test system of the test is S. aureus. The test is described as follows: Tolerance of S. aureus towards ELF phosphate in S. aureus plating media. It is filed as cell-based. As to conditions: for Colony Growth: visual inspection relative to media without ELF phosphate. An excerpt: Varying concentrations of ELF® phosphate in S. aureus plating media were used to determine the effect on growth and sensitivity of S. aureus to ELF® phosphate. Colony growth in the presence of ELF® phosphate was compared to colony growth in media without ELF® phosphate.

On to `O=P(O)(O)O.O=c1[nH]c(-c2cc(Cl)ccc2O)nc2ccc(Cl)cc12` [ELF ® Phosphate, 6-chloro-2-(5-chloro-2-hydroxyphenyl)-quinazolin-4(3H)-one phosphate], for which the “Colony Growth” value runs as follows: (ELF phosphate 0.080 g/L) “Normal”; (ELF phosphate 0.200 g/L) “Normal”; (ELF phosphate 0.400 g/L) “Normal”; (ELF phosphate 0.600 g/L) “Normal”. The “effect of concentration on growth” value (S. aureus plating media, 0.080-0.600 g/L) was “no effect on growth”. Further, the “inhibition of the growth of S. aureus strains” value (concentrations of 500 mg/L and higher) was “do not significantly inhibit”.
